Data published in article PMC8536124 (International Journal of Molecular Sciences, 2021).
Read-outs that look alike come from different tables or passages of the source.

Assays:
Format in all cases: cell-based, human
LOX IMVI = assay: NCI-60 screening (SRB)
UO-31 = assay: NCI-60 screening (SRB); settings: five-dose
A498 = assay: NCI-60 screening (SRB); settings: A498, five-dose
NCI-H460 = assay: NCI-60 screening (SRB); settings: five-dose
NCI-H522 = assay: NCI-60 screening (SRB); settings: five-dose
NCI-H322M = assay: NCI-60 screening (SRB); settings: five-dose
OVCAR-5 = assay: NCI-60 screening (SRB); settings: five-dose
RXF 393 = assay: NCI-60 screening (SRB); settings: five-dose
HCC-2998 = assay: NCI-60 screening (SRB); settings: five-dose
BT-549 = assay: NCI-60 screening (SRB); settings: five-dose
OVCAR-3 = assay: NCI-60 screening (SRB); settings: five-dose
TK-10 = assay: NCI-60 screening (SRB); settings: five-dose
HT29 = assay: NCI-60 screening (SRB)
NCI-H226 = assay: NCI-60 screening (SRB); settings: five-dose
[1] = test system: NCI-60 cancer cell line panel; assay: NCI-60 screening (SRB), full panel; settings: for activity at 10 µM: 60 cell lines, 48 h
From the text: The experimental data allow the assessment of the cytostatic effect, indicated by growth inhibition values ranging between 0 and 100, as well as of the cytotoxic effect, indicated by negative values.
The mean GI50 (molar concentration of the compound that inhibits 50% net cell growth), TGI (molar concentration of the compound leading to the total inhibition), and LC50 (molar concentration of the compound leading to 50% net cell death (presented in negative logarithm)) values across each cell line are shown in Table 2.
The selectivity index (SI), calculated as the ratio between the full panel MG_MID60 (μM) of compounds 4, 6, and 9 by their respective subpanels MG_MID of the cell line (μM), was introduced as a quantification tool for the selectivity of each compound in terms of anticancer effect (Table 3).
Primary anticancer assays were performed according to the NCI protocol, as described elsewhere (see e.g., http://dtp.nci.nih.gov accessed on 1 November 2018). The compounds were added at a single concentration, and the cell cultures were incubated for 48 h. The end point determinations were made with a protein-binding dye, sulforhodamine B (SRB). […] The percentage of growth was evaluated spectrophotometrically versus controls not treated with test agents after 48 h exposure and using SRB protein assay to estimate cell viability or growth. Three antitumor activity dose-response parameters were calculated for each cell line. Furthermore, mean graph midpoints (MG_MID) were calculated for each of the parameters, giving an average activity parameter over all cell lines for the tested compound. For the MG_MID calculation, insensitive cell lines were included with the highest concentration tested.

RPMI-8226 = assay: NCI-60 screening (SRB); settings: five-dose
MDA-MB-435 = assay: NCI-60 screening (SRB); settings: five-dose
SK-MEL-28 = assay: NCI-60 screening (SRB)
UACC-257 = assay: NCI-60 screening (SRB); settings: five-dose
HL-60(TB) = assay: NCI-60 screening (SRB); settings: HL-60(TB), five-dose
A549/ATCC = assay: NCI-60 screening (SRB); settings: five-dose
ACHN = assay: NCI-60 screening (SRB); settings: five-dose
SF-268 = assay: NCI-60 screening (SRB); settings: five-dose
IGROV1 = assay: NCI-60 screening (SRB)
COLO 205 = assay: NCI-60 screening (SRB); settings: five-dose
HCT-116 = assay: NCI-60 screening (SRB); settings: five-dose
[2] = Homo sapiens, read-out: LC50 (the source's name)

CCN1CCN(C(=O)[C@]23CC[C@@H](C)[C@H](C)[C@H]2C2=CC[C@@H]4[C@@]5(C)CCC(=O)C(C)(C)[C@@H]5CC[C@@]4(C)[C@]2(C)CC3)CC1 [Compound 4, N-(3-oxo-ursan-12-en-28-oyl)-ethylpiperazine]
GI50 (LOX IMVI; Homo sapiens, LOX IMVI, five-dose): 821 nM
CC50 (LOX IMVI; Homo sapiens, LOX IMVI, five-dose, read-out: LC50 (the source's name)): 2800 nM
TGI (LOX IMVI; LOX IMVI, five-dose): 1520 nM
Growth % (LOX IMVI; LOXIMVI (Melanoma), 1 dose 10 µM): −85.17%
GI50 (UO-31; Homo sapiens): 726 nM
CC50 (UO-31; [2]): 2790 nM
TGI (UO-31): 1420 nM
TGI (A498): 2420 nM
GI50 (A498; Homo sapiens): 927 nM
CC50 (A498; [2]): 7920 nM
GI50 (NCI-H460; Homo sapiens): 913 nM
CC50 (NCI-H460; [2]): 3270 nM
TGI (NCI-H460): 1750 nM
GI50 (NCI-H522; Homo sapiens): 831 nM
CC50 (NCI-H522; [2]): 3690 nM
TGI (NCI-H522): 1750 nM
GI50 (NCI-H322M; Homo sapiens): 1570 nM
CC50 (NCI-H322M; [2]): 16800 nM
TGI (NCI-H322M): 5430 nM
GI50 (OVCAR-5; Homo sapiens): 907 nM
CC50 (OVCAR-5; [2]): 3870 nM
TGI (OVCAR-5): 1870 nM
GI50 (RXF 393; Homo sapiens): 822 nM
CC50 (RXF 393; [2]): 3690 nM
TGI (RXF 393): 1740 nM
GI50 (HCC-2998; Homo sapiens): 922 nM
CC50 (HCC-2998; [2]): 3600 nM
TGI (HCC-2998): 1820 nM
GI50 (BT-549; Homo sapiens): 833 nM
CC50 (BT-549; [2]): 3000 nM
TGI (BT-549): 1580 nM
GI50 (OVCAR-3; Homo sapiens): 1100 nM
CC50 (OVCAR-3; [2]): 6520 nM
TGI (OVCAR-3): 2440 nM
GI50 (TK-10; Homo sapiens): 1270 nM
CC50 (TK-10; [2]): 20300 nM
TGI (TK-10): 4140 nM
GI50 (HT29; Homo sapiens, HT-29, five-dose): 913 nM
CC50 (HT29; Homo sapiens, HT-29, five-dose, read-out: LC50 (the source's name)): 4590 nM
TGI (HT29; five-dose): 2050 nM
GI50 (NCI-H226; Homo sapiens): 1780 nM
CC50 (NCI-H226; [2]): 28700 nM
TGI (NCI-H226): 7010 nM
Positive Cytostatic Effect (cell lines with percent growth 0 to 50 / total) ([1]; 1 dose 10 µM): 60/60
Positive Cytotoxic Effect (cell lines with percent growth <0 / total) ([1]; 1 dose 10 µM): 60/60
GI50 ([1]; Homo sapiens, five-dose, bound, read-out: GI50 against all human tumor cells): < 2000 nM
GI50 ([1]; Homo sapiens, five-dose, read-out: GI50 against the most sensitive cell lines): 700 to 990 nM
GI50 ([1]; Homo sapiens, mean graph midpoint, full panel, five-dose, read-out: GI50 MG_MID60): 1030 nM
CC50 ([1]; Homo sapiens, mean graph midpoint, full panel, five-dose, read-out: LC50 MG_MID60): 12300 nM
activity at 10 µM ([1]; Homo sapiens, 1 dose 10 µM, read-out: Mean Growth, %): -10.5%
activity at 10 µM ([1]; Homo sapiens, 1 dose 10 µM, read-out: Range of Growth, %): -85.7 to -41.5%
selectivity class ([1]; all GI50, TGI, and LC50 levels): nonselective (ratios below 3 indicate nonselective compounds)
TGI MG_MID60 ([1]; mean graph midpoint, full panel, five-dose): 2740 nM
GI50 (RPMI-8226; Homo sapiens): 809 nM
CC50 (RPMI-8226; [2]): 4900 nM
TGI (RPMI-8226): 1990 nM
GI50 (MDA-MB-435; Homo sapiens): 1050 nM
CC50 (MDA-MB-435; [2]): 5220 nM
TGI (MDA-MB-435): 2300 nM
Growth % (SK-MEL-28; 1 dose 10 µM): −64.66%
GI50 (SK-MEL-28; Homo sapiens, five-dose): 889 nM
CC50 (SK-MEL-28; Homo sapiens, five-dose, read-out: LC50 (the source's name)): 3270 nM
TGI (SK-MEL-28; five-dose): 1700 nM
GI50 (UACC-257; Homo sapiens): 985 nM
CC50 (UACC-257; [2]): 4880 nM
TGI (UACC-257): 2190 nM
TGI (HL-60(TB)): 2740 nM
GI50 (HL-60(TB); Homo sapiens): 976 nM
CC50 (HL-60(TB); [2]): > 50000 nM
GI50 (A549/ATCC; Homo sapiens): 1470 nM
CC50 (A549/ATCC; [2]): 21800 nM
TGI (A549/ATCC): 5980 nM
GI50 (ACHN; Homo sapiens): 1330 nM
LC50 (ACHN; Homo sapiens): 14800 nM
TGI (ACHN): 4380 nM
GI50 (SF-268; Homo sapiens): 1770 nM
CC50 (SF-268; [2]): 24600 nM
TGI (SF-268): 6490 nM
GI50 (IGROV1; Homo sapiens, IGROV-1, five-dose): 1040 nM
CC50 (IGROV1; Homo sapiens, IGROV-1, five-dose, read-out: LC50 (the source's name)): 19100 nM
TGI (IGROV1; five-dose): 4850 nM
GI50 (COLO 205; Homo sapiens): 1020 nM
CC50 (COLO 205; [2]): 14500 nM
TGI (COLO 205): 2370 nM
GI50 (HCT-116; Homo sapiens): 798 nM
CC50 (HCT-116; [2]): 3090 nM
TGI (HCT-116): 1570 nM
